Laboratory results published in US20230391778A1, “INDOLIN-2-ONE OR PYRROLO -PYRIDIN -2 -ONE DERIVATIVES” (Hoffmann-La Roche Inc., priority 2014, published 2023).

Key:
mice = assay: SmartCube behavioral signature similarity analysis; format: in vivo, mouse; set-up: key to discrimination rate vs Clozapine (similarity analysis) / discrimination rate vs Olanzapine (similarity analysis) / discrimination rate vs Risperidone (similarity analysis): fraction; 0.5 = zero distinguishability between the two drugs; conditions: for discrimination rate vs Clozapine (similarity analysis) / discrimination rate vs Olanzapine (similarity analysis) / discrimination rate vs Risperidone (similarity analysis): 5 mg/kg i.p., SmartCube, rate of 0.70 or lower = similar
Source text: In addition to the reversal of L-687,414 induced hyperlocomotion experiment as described above, some compounds of the present invention have been tested in SmartCube®, an automated system in which the behaviors of compound-treated mice in response to multiple challenges are captured by digital video and analyzed with computer algorithms (Roberds et al., Frontiers in Neuroscience, 2011, Vol. 5, Art. 103, 1-4; Vadim Alexandrov, Dani Brunner, Taleen Hanania, Emer Leahy Eur. J. Pharmacol. 2015, 750, 82-99). In this way, the neuro-pharmacological effects of a test compound can be predicted by similarity to major classes of compounds, such as antipsychotics, anxiolytics and antidepressants.
As mentioned above, some compounds have been tested in SmartCube©, an analytical system developed by PsychoGenics Inc.
SmartCube® was used to compare the behavioral signature of a test compound to a database of behavioral signatures obtained from a large set of clinically approved reference drugs, grouped per indications. In this way, the neuro-pharmacological effects of a test compound can be predicted by similarity to major classes of compounds, such as antipsychotics, anxiolytics and antidepressants. This approach is ideally suited to screen collections of existing drugs or drug candidates with previously unknown neuropharmacology, which could expedite the development of new and unexpected treatments for psychiatric disorders.
Some compounds of the present invention were injected i.p. at different doses 15 minutes before the test. At least 8 mice were used in each treatment group. Digital videos of the subjects were processed with computer vision algorithms to extract over 2000 dependent measures including frequency and duration of many different behavioral states. The results of the classifications are presented as bar charts for each compound and dose (mg/kg), the Y-axis indicates the relative probability that the test compound will show efficacy in the specific CNS indication.
For comparison, the behavioral signatures of the atypical antipsychotics clozapine, olanzapine and risperidone are shown in FIG. 2. Compounds of the present invention show similar signatures to those of atypical antipsychotics. An independent analysis was performed on the unclassified data to determine the similarity of the example compounds to active doses of known atypical antipsychotics. For this analysis, we use discrimination rate as the measure of separability between the two drugs, i.e. one drug's “distinguishability” from another. A rate equal to 50% (or 0.5) corresponds to zero distinguishability. […] In most cases, the example compounds show a similarity to risperidone, clozapine and olanzapine with a discrimination rate of <0.70.

mouse ENT-1 transporter = biological target: T1, mouse ENT-1 transporter (Mus musculus, UniProt Q9JIM1); assay: Measure of adenosine transport activity (ENT1 adenosine uptake inhibition); format: cell-based; conditions: stable cells expressing mouse ENT-1, [2,8-3H]-adenosine 6 nM, 20 min
T1 construct: expressed in transfected cells
T1 sequence (Q9JIM1 1-460): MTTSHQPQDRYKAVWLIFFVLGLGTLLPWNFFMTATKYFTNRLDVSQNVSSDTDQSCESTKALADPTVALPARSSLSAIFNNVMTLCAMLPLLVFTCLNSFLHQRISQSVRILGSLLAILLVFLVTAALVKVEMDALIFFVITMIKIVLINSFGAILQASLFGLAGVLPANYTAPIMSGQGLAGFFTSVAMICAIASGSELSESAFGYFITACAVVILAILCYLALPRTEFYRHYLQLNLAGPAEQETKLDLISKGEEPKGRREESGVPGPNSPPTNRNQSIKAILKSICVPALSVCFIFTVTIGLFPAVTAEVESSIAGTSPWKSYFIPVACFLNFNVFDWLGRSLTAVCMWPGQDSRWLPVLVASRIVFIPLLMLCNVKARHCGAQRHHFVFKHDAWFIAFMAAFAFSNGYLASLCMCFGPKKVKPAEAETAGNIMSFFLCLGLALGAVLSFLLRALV
In short: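 Stable mouse ENT-1 cells, 60,000/well, washed into pH 7.4 Hepes-Tris uptake buffer and incubated at RT with compound (1% DMSO final) for 20 min with shaking. Non-specific uptake defined with 10 μM NBTI; cell-associated radioactivity counted by scintillation after ice-cold washes.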

[1] = tested on: L-687,414-induced hyperlocomotion; assay: L-687,414-induced hyperlocomotion; format: in vivo, mouse; conditions: Mus musculus; Dose ip 30 mg/kg, mice, 50 mg/kg s.c. L-687,414
Method: The described compounds of formula I reduce L-687,414-induced hyperlocomotion. This was assessed by using a computerized Digiscan 16 Animal Activity Monitoring System (Omnitech Electronics, Columbus, Ohio) to quantify locomotor activity. Animals were kept under a 12 h light/dark cycle and experiments were performed during the light period. Each activity monitoring chamber consisted of a Plexiglas box (41×41×28 cm; W×L×H) with sawdust bedding on the floor surrounded by invisible horizontal and vertical infrared sensor beams. The test boxes were divided by a Plexiglas cross providing each mouse with 20×20 cm of moving space. Cages were connected to a Digiscan Analyzer linked to a computer that constantly collected the beam status information. Records of photocell beam interruptions for individual animals were taken every 5 min over the duration of the experimental session and the sum of the first 6 periods was used as the final parameter. At least 8 mice were used in each treatment group. Compounds were administered either p.o. 15 min before a s.c. injection of 50 mg/kg of L-687,414, or i.p. at the same time as a s.c. injection of 50 mg/kg of L-687,414. Mice were then transferred from their home cage to the recording chambers for a 15-min habituation phase allowing free exploration of the new environment. Horizontal activity was then recorded for a 30-min time period. The % inhibition of L-687,414-induced hyperlocomotion was calculated according to the equation:
((Veh+L-687,414 horizontal activity−drug+L-687,414 horizontal activity)/Veh+L-687,414 horizontal activity)×100
ID50 values, defined as doses of each compound producing 50% inhibition of L-687,414-induced hyperlocomotion, were calculated by linear regression analysis of a dose-response data using an Excel-based computer-fitting program.
As data was not presupposed to be normally distributed, groups treated with test compounds were statistically compared with the control (vehicle-treated) group using one-tailed Mann Whitney U tests. In statistics, the Mann-Whitney U test (also called the Mann-Whitney-Wilcoxon (MWW) or Wilcoxon rank-sum test) is a non-parametric statistical hypothesis test for assessing whether one of two samples of independent observations tends to have larger values than the other. It is one of the most well-known non-parametric significance tests. […] P values given in table 1 are one-tailed since only decreases in locomotion were expected and tested for (Mann, H. B., Whitney, D. R. (1947), “On a Test of Whether one of Two Random Variables is Stochastically Larger than the Other”, Annals of Mathematical Statistics, 18 (1), 50-60).

IC50 (mouse ENT-1 transporter) [nM] | Compound | SmartCube similarity to major drug classes (mice) | discrimination rate vs Clozapine (similarity analysis) (mice) | discrimination rate vs Olanzapine (similarity analysis) (mice) | discrimination rate vs Risperidone (similarity analysis) (mice) | inhibition in vivo at 30 mg/kg [1] [%]
 | Cc1cc(N2C(=O)C(C)(C)c3ccc(-c4cnc(C)nc4)cc32)c(F)cn1 [Example 25, 1-(5-Fluoro-2-methylpyridin-4-yl)-3,3-dimethyl-6-(2-methylpyrimidin-5-yl)indolin-2-one] | similarity to atypical antipsychotics | 0.61 | 0.62 | 0.74 | 
174 | Cc1ncc(-c2ccc3c(c2)N(c2cnc(C)nc2)C(=O)C3(C)C)cn1 [Example 9, 3,3-Dimethyl-1,6-bis(2-methylpyrimidin-5-yl)indolin-2-one] | similarity to atypical antipsychotics | 0.65 | 0.66 | 0.69 | 93.2
1520 | Cc1cnc(N2C(=O)C(C)(C)c3ccc(-c4cnc(C)nc4)cc32)nc1 [Example 53, 3,3-Dimethyl-1-(5-methylpyrimidin-2-yl)-6-(2-methylpyrimidin-5-yl)indolin-2-one] | similarity to atypical antipsychotics | 0.59 | 0.61 | 0.62 | 
55 | Cc1ccc(N2C(=O)C(C)(C)c3ccc(-c4cnc(C)nc4)cc32)nn1 [Example 48, 3,3-Dimethyl-1-(6-methylpyridazin-3-yl)-6-(2-methylpyrimidin-5-yl)indolin-2-one] | similarity to atypical antipsychotics | 0.58 | 0.61 | 0.67 | 
